Among the data in patent US20260022143A1, “Cyclic Peptide Inhibitors of IL-23” (JANSSEN PHARMACEUTICA NV, priority 2022, published 2026) are EPSA values, retold here.

Counter-ions that a name gives are not always drawn. Starred links: 1 amine or outer side, 2 acyl side, 3 side chain; linkers in the order of their positions; H or OH if unused. Positions of bridges follow the written chain, without caps; N, C: chain ends. Non-standard residues stand in square brackets, D forms with d. Residues, ends and D or L forms follow the SMILES beside them. Groups on a side chain read outwards from the residue. *: point of attachment. Me3N+CH2CH2(OCH2CH2)4CO = C[N+](C)(C)CCOCCOCCOCCOCCC(=O)*; Me3N+(CH2)2O(CH2)2O(CH2)2CO = C[N+](C)(C)CCOCCOCCC(=O)*; Trp(7-Me) = Cc1cccc2c(C[C@H](N)C(=O)O)c[nH]c12; Ac6c(4,4-F2) = NC1(C(=O)O)CCC(F)(F)CC1; γGlu = O=C(O)[C@H](CCC(=O)[*:2])N[*:1]; 2Nal = N[C@@H](Cc1ccc2ccccc2c1)C(=O)O; AEF = NCCOc1ccc(C[C@H](N)C(=O)O)cc1; dLys(Me) = CNCCCC[C@@H](N)C(=O)O; 3Pal = N[C@@H](Cc1cccnc1)C(=O)O; Myristoyl = CCCCCCCCCCCCCC(=O)*; Lys(Me) = CNCCCC[C@H](N)C(=O)O; NMeK = CN[C@@H](CCCCN)C(=O)O; Pen = CC(C)(S)[C@H](N)C(=O)O; Thp = NC1(C(=O)O)CCOCC1; X3 = C[N+](C)(C)CCCCC*; AEEA = NCCOCCOCC(=O)O; Me2NCH2CH2 = CN(C)CC*; Tfa = O=C(C(F)(F)F)*; Sar = CNCC(=O)O

The first series in a line: Exposed Polar Surface Area (EPSA). As to conditions: SFC on Chirex 3014 column; sample 1 mM DMSO stock. It counts as physicochemical. The method, boiled down:
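SFC retention on a Chirex 3014 (S)-valine/(R)-1-(α-naphthyl)ethylamine column, 35 °C, CO2 with MeOH (20 mM ammonium formate) gradient 5–60% at 20%/min, 14 MPa outlet. Retention times converted to EPSA (Å^2) via linear calibration with 8 standards; samples from 1 mM DMSO stock, run in duplicate.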
In turn, `CC(=O)N(C)CCCC[C@@H]1NC(=O)[C@H](Cc2c[nH]c3c(C)cccc23)NC(=O)[C@H]([C@@H](C)O)NC(=O)[C@H](CC(=O)N(C)C)NC(=O)[C@@H](NC(=O)CCOCCOCC[N+](C)(C)C)C(C)(C)SSC(C)(C)[C@@H](C(=O)N[C@@H](Cc2ccc(OCCN)cc2)C(=O)N[C@@H](Cc2ccc3ccccc3c2)C(=O)NC2(C(=O)N[C@@H](CCN(C)C(C)=O)C(=O)N[C@@H](CC(N)=O)C(=O)N[C@@H](Cc3cccnc3)C(=O)N(C)CC(=O)N(C)C)CCC(F)(F)C2)NC1=O` (single isomer, unassigned) [compound 180, cPEG3aCO-Pen(3)-N(N(Me)2)-T-7MeW-K(NMeAc)-Pen(3)-AEF-2Nal-diFCpx-Dab(NMeAc)-N-3Pya-Sar-CON(Me)2] yielded an EPSA of 150.1 Å^2.

The same series, now with this note: SFC on Chirex 3014 column; sample 1 mM DMSO stock; read-out: EPSA.
`CC(=O)NCCCC[C@@H]1NC(=O)[C@H](Cc2c[nH]c3c(C)cccc23)NC(=O)[C@H]([C@@H](C)O)NC(=O)[C@H](CC(N)=O)NC(=O)[C@@H](NC(C)=O)C(C)(C)SSC(C)(C)[C@@H](C(=O)N[C@@H](Cc2ccc(OCCN)cc2)C(=O)N[C@@H](Cc2ccc3ccccc3c2)C(=O)NC2(C(=O)N[C@@H](CCCCN(C)C(C)=O)C(=O)N[C@@H](CC(N)=O)C(=O)N[C@@H](Cc3cccnc3)C(=O)N(C)CC(N)=O)CCOCC2)NC1=O` [compound 59] (Ac-[Pen]NT[Trp(7-Me)]K(Ac)[Pen][AEF][2Nal][Thp][Lys(Me)](Ac)N[3Pal][Sar]-NH2; disulfide 1-6 (inferred)): the EPSA stood at 166 A^2.
In the case of `CC(=O)NCCCC[C@@H]1NC(=O)[C@H](Cc2c[nH]c3c(C)cccc23)NC(=O)[C@H]([C@@H](C)O)NC(=O)[C@H](CC(N)=O)NC(=O)[C@@H](NC(=O)C(F)(F)F)C(C)(C)SSC(C)(C)[C@@H](C(=O)N[C@@H](Cc2ccc(OCCN)cc2)C(=O)N[C@@H](Cc2ccc3ccccc3c2)C(=O)NC2(C(=O)N[C@@H](CCC(=O)N(C)C)C(=O)N[C@@H](CC(N)=O)C(=O)N[C@@H](Cc3cccnc3)C(=O)N(C)CC(N)=O)CCOCC2)NC1=O` [compound 72] (Tfa-[Pen]NT[Trp(7-Me)]K(Ac)[Pen][AEF][2Nal][Thp]E(NMe2)N[3Pal][Sar]-NH2; disulfide 1-6 (inferred)), the EPSA turned out to be 160 A^2.
The same measure, in the same setting: under `CC(=O)NCCCC[C@@H]1NC(=O)[C@H](Cc2c[nH]c3c(C)cccc23)NC(=O)[C@H]([C@@H](C)O)NC(=O)[C@H](CC(N)=O)NC(=O)[C@@H](NC(C)=O)C(C)(C)SSC(C)(C)[C@@H](C(=O)N[C@@H](Cc2ccc(OCCN)cc2)C(=O)N[C@@H](Cc2ccc3ccccc3c2)C(=O)NC2(C(=O)N[C@H](CCCCN(C)C(=O)CCOCCOCCOCCOCC[N+](C)(C)C)C(=O)N[C@@H](CC(N)=O)C(=O)N[C@@H](Cc3cccnc3)C(=O)N(C)CC(N)=O)CCOCC2)NC1=O` [compound 111] (Ac-[Pen]NT[Trp(7-Me)]K(Ac)[Pen][AEF][2Nal][Thp][dLys(Me)](Me3N+CH2CH2(OCH2CH2)4CO)N[3Pal][Sar]-NH2; disulfide 1-6) stands 153 A^2; under `CC(=O)NCCCC[C@@H]1NC(=O)[C@H](Cc2c[nH]c3c(C)cccc23)NC(=O)[C@H]([C@@H](C)O)NC(=O)[C@H](CC(N)=O)NC(=O)[C@@H](NC(=O)C(F)(F)F)C(C)(C)SSC(C)(C)[C@@H](C(=O)N[C@@H](Cc2ccc(OCCN)cc2)C(=O)N[C@@H](Cc2ccc3ccccc3c2)C(=O)NC2(C(=O)N[C@@H](CCCCNC(C)=O)C(=O)N[C@@H](CC(N)=O)C(=O)N[C@@H](Cc3cccnc3)C(=O)N(C)CC(N)=O)CCC(F)(F)CC2)NC1=O` [compound 50] (Tfa-[Pen]NT[Trp(7-Me)]K(Ac)[Pen][AEF][2Nal][Ac6c(4,4-F2)]K(Ac)N[3Pal][Sar]-NH2; disulfide 1-6 (inferred)), 162 A^2.
On the same count and under the same terms, then `CCCCCCCCCCCCCC(=O)N[C@@H](CCC(=O)NCCOCCOCC(=O)NCCOCCOCC(=O)NCCCC[C@H](NC(=O)C1(NC(=O)[C@H](Cc2ccc3ccccc3c2)NC(=O)[C@H](Cc2ccc(OCCCCC[N+](C)(C)C)cc2)NC(=O)[C@H]2NC(=O)[C@H](CCCCN(C)C(C)=O)NC(=O)[C@H](Cc3c[nH]c4c(C)cccc34)NC(=O)[C@H]([C@@H](C)O)NC(=O)[C@H](CC(=O)N(C)C)NC(=O)[C@@H](NC(=O)[C@@H](CCCCNC(=O)COCCOCCNC(=O)COCCOCCNC(=O)CC[C@H](NC(=O)CCCCCCCCCCCCC)C(=O)O)NC(=O)CCOCCOCC[N+](C)(C)C)C(C)(C)SSC2(C)C)CCOCC1)C(=O)N[C@@H](CC(N)=O)C(=O)N[C@@H](Cc1cccnc1)C(=O)N(C)CC(=O)N(C)C)C(=O)O` [compound 395, cPEG3aCO-k(PEG2PEG2gEC14)-Pen(3)-N(N(Me)2)-T-7MeW-K(NMeAc)-Pen(3)-TMAPF-2Nal-THP-K(PEG2PEG2gEC14)-N-3Pya-Sar-CON(Me)2] ({Me3N+(CH2)2O(CH2)2O(CH2)2CO}-[dK]([AEEA-AEEA-γGlu-Myristoyl])[Pen]D(NMe2)T[Trp(7-Me)][Lys(Me)](Ac)[Pen]Y(X3)[2Nal][Thp]K([AEEA-AEEA-γGlu-Myristoyl])N[3Pal][Sar]-NMe2; disulfide 2-7), with 189 A^2; and `CCCCCCCCCCCCCC(=O)N[C@@H](CCC(=O)NCCOCCOCC(=O)NCCOCCOCC(=O)NCCCC[C@H](NC(=O)C1(NC(=O)[C@H](Cc2ccc3ccccc3c2)NC(=O)[C@H](Cc2ccc(OCCCCC[N+](C)(C)C)cc2)NC(=O)[C@H]2NC(=O)[C@H](CCCCNC(C)=O)NC(=O)[C@H](Cc3c[nH]c4c(C)cccc34)NC(=O)[C@H]([C@@H](C)O)NC(=O)[C@H](CC(=O)N(C)C)NC(=O)[C@@H](NC(=O)CCOCCOCC[N+](C)(C)C)C(C)(C)SSC2(C)C)CCOCC1)C(=O)N[C@@H](CC(N)=O)C(=O)N[C@@H](Cc1cccnc1)C(=O)N(C)[C@@H](CCCCNC(=O)COCCOCCNC(=O)COCCOCCNC(=O)CC[C@H](NC(=O)CCCCCCCCCCCCC)C(=O)O)C(N)=O)C(=O)O` [compound 351, cPEG3aCO-Pen(3)-N(N(Me)2)-T-7MeW-K(Ac)-Pen(3)-TMAPF-2Nal-THP-K(PEG2PEG2gEC14)-N-3Pya-NMeK(PEG2PEG2gEC14)-CONH2] ({Me3N+(CH2)2O(CH2)2O(CH2)2CO}-[Pen]D(NMe2)T[Trp(7-Me)]K(Ac)[Pen]Y(X3)[2Nal][Thp]K([AEEA-AEEA-γGlu-Myristoyl])N[3Pal][NMeK]([AEEA-AEEA-γGlu-Myristoyl])-NH2; disulfide 1-6), with 184 A^2; and `CC(=O)N(C)CCCC[C@@H]1NC(=O)[C@H](Cc2c[nH]c3c(C)cccc23)NC(=O)[C@H]([C@@H](C)O)NC(=O)[C@H](CC(=O)N(C)C)NC(=O)[C@@H](NC(=O)C(F)(F)F)C(C)(C)SSC(C)(C)[C@@H](C(=O)N[C@@H](Cc2ccc(OCCN(C)C)cc2)C(=O)N[C@@H](Cc2ccc3ccccc3c2)C(=O)NC2(C(=O)N[C@@H](CCC(=O)N(C)C)C(=O)N[C@@H](CC(N)=O)C(=O)N[C@@H](Cc3cccnc3)C(=O)N(C)CC(N)=O)CCOCC2)NC1=O` [compound 79, CF3CO-Pen(3)-N(N(Me)2)-T-7MeW-K(NMeAc)-Pen(3)-AEF(N(Me)2)-2Nal-THP-Q(N(Me)2)-N-3Pya-Sar-CONH2] (Tfa-[Pen]D(NMe2)T[Trp(7-Me)][Lys(Me)](Ac)[Pen]Y(Me2NCH2CH2)[2Nal][Thp]E(NMe2)N[3Pal][Sar]-NH2; disulfide 1-6 (inferred)), with 144 A^2.
Still for that read-out and setting: then `CC(=O)N(C)CCCC[C@@H]1NC(=O)[C@H](Cc2c[nH]c3c(C)cccc23)NC(=O)[C@H]([C@@H](C)O)NC(=O)[C@H](CC(=O)N(C)C)NC(=O)[C@@H](NC(=O)CCOCCOCC[N+](C)(C)C)C(C)(C)SSC(C)(C)[C@@H](C(=O)N[C@@H](Cc2ccc(OCCN)cc2)C(=O)N[C@@H](Cc2ccc3ccccc3c2)C(=O)NC2(C(=O)N[C@@H](CCC(=O)N(C)C)C(=O)N[C@@H](CC(N)=O)C(=O)N[C@@H](Cc3cccnc3)C(=O)N(C)CC(N)=O)CCOCC2)NC1=O` [compound 150, cPEG3aCO-Pen(3)-N(N(Me)2)-T-7MeW-K(NMeAc)-Pen(3)-AEF-2Nal-THP-Q(N(Me)2)-N-3Pya-Sar-CONH2] ({Me3N+(CH2)2O(CH2)2O(CH2)2CO}-[Pen]D(NMe2)T[Trp(7-Me)][Lys(Me)](Ac)[Pen][AEF][2Nal][Thp]E(NMe2)N[3Pal][Sar]-NH2; disulfide 1-6), with 159 A^2; and `COCCOCCOCCOCCOCCOCCNCCOc1ccc(C[C@H](NC(=O)[C@H]2NC(=O)[C@H](CCCCNC(C)=O)NC(=O)[C@H](Cc3c[nH]c4c(C)cccc34)NC(=O)[C@H]([C@@H](C)O)NC(=O)[C@H](CC(N)=O)NC(=O)[C@@H](NC(C)=O)C(C)(C)SSC2(C)C)C(=O)N[C@@H](Cc2ccc3ccccc3c2)C(=O)NC2(C(=O)N[C@@H](CCCCNC(C)=O)C(=O)N[C@@H](CC(N)=O)C(=O)N[C@@H](Cc3cccnc3)C(=O)N(C)CC(N)=O)CCOCC2)cc1` [compound 65], with 154 A^2.
On to `CC(=O)N(C)CCCC[C@@H]1NC(=O)[C@H](Cc2c[nH]c3c(C)cccc23)NC(=O)[C@H]([C@@H](C)O)NC(=O)[C@H](CC(=O)N(C)C)NC(=O)[C@@H](NC(=O)C(F)(F)F)C(C)(C)SSC(C)(C)[C@@H](C(=O)N[C@@H](Cc2ccc(OCCN(C)C)cc2)C(=O)N[C@@H](Cc2ccc3ccccc3c2)C(=O)NC2(C(=O)N[C@@H](CCCCN(C)C(C)=O)C(=O)N[C@@H](CC(N)=O)C(=O)N[C@@H](Cc3cccnc3)C(=O)N(C)CC(=O)N(C)C)CCOCC2)NC1=O` [compound 66, CF3CO-Pen(3)-N(N(Me)2)-T-7MeW-K(NMeAc)-Pen(3)-AEF(N(Me)2)-2Nal-THP-K(NMeAc)-N-3Pya-Sar-CON(Me)2] (Tfa-[Pen]D(NMe2)T[Trp(7-Me)][Lys(Me)](Ac)[Pen]Y(Me2NCH2CH2)[2Nal][Thp][Lys(Me)](Ac)N[3Pal][Sar]-NMe2; disulfide 1-6 (inferred)), for which the EPSA worked out at 138 A^2.
On the same count and under the same terms, then `CC(=O)N(C)CCCC[C@@H]1NC(=O)[C@H](Cc2c[nH]c3c(C)cccc23)NC(=O)[C@H]([C@@H](C)O)NC(=O)[C@H](CC(=O)N(C)C)NC(=O)[C@@H](NC(=O)CCOCCOCC[N+](C)(C)C)C(C)(C)SSC(C)(C)[C@@H](C(=O)N[C@@H](Cc2ccc(OCCN(CCOCC[N+](C)(C)C)CCOCC[N+](C)(C)C)cc2)C(=O)N[C@@H](Cc2ccc3ccccc3c2)C(=O)NC2(C(=O)N[C@@H](CCCCN(C)C(C)=O)C(=O)N[C@@H](CC(N)=O)C(=O)N[C@@H](Cc3cccnc3)C(=O)N(C)CC(=O)N(C)C)CCOCC2)NC1=O` (relative stereo) [compound 266, cPEG3aCO-Pen(3)-N(N(Me)2)-T-7MeW-K(NMeAc)-Pen(3)-AEF(BisPEG2a)(S*)-2Nal-THP-K(NMeAc)-N-3Pya-Sar-CON(Me)2], with 157 A^2.
